Data on four compounds can be found in US8501911B2, “Methods of reducing inflammation and mucus hypersecretion” (Biomarck Pharmaceuticals, Ltd, priority 1999, dated 2013).

Values joined by “and” are separate entries in the source; they are usually repeats but may differ in a detail not shown here. Identical values can stand only once. Residues, ends and D or L forms follow the SMILES beside them. *: point of attachment. Myristoyl = CCCCCCCCCCCCCC(=O)*

Assay [1] relates to NHBE cells. In words: PMA+8-Br-cGMP-induced mucin secretion from NHBE cells (ELISA). The class given is cell-based, human. The settings on record: for Mucin secretion level relative to media control: pre- and co-incubation with 100 nM PMA+1 μM 8-Br-cGMP (Results-M-1A/M-3A). The protocol:
Peptide Blocking Studies—NHBE cells were preincubated with either the MANS or the RNS peptide (1-100 μM) for 15 min, and then PMA (100 nM)+8-Br-cGMP (1 μM) or UTP (100 μM) was added, and cells were incubated for an additional 15 min or 2 h. respectively. Mucin secretion was measured by ELISA and experimental results are designated as Results-I-2B-1 and Results-I-2B-2, as follows. […]
(§1) Measurement of Mucin Secretion by ELISA—Before collection of “base line” and “test” mucin samples, the accumulated mucus at the apical surface of the cells was removed by washing with phosphate-buffered saline, pH 7.2. To collect the base-line secretion, cells were incubated with medium alone, and secreted mucin in the apical medium was collected and reserved. Cells were rested for 24 h and then exposed to medium containing the selected stimulatory and/or inhibitory reagents (or appropriate controls), after which secreted mucin was collected and reserved as the test sample. Incubation times for the base line and the test were the same but varied depending on the test reagent utilized. Both base line and test secretions were analyzed by ELISA using an antibody capture method as known in the art. See, e.g., Harlow et al., Antibodies: A Laboratory Manual, pp. 570-573, Cold Spring Harbor Laboratory, Cold Spring Harbor, N.Y. (1988). The primary antibody for this assay was 17Q2 (Babco, Richmond, Calif.), a monoclonal antibody that reacts specifically with a carbohydrate epitope on human airway mucins. The ratio of test/base-line mucin, which is similar to a “secretory index”, was used to quantify mucin secretion, allowing each culture dish to serve as its own control and thus, minimizing deviation caused by variability among culture wells. Wright et al., Am. J. Physiol. 271, L854-L861 (1996). Levels of mucin secretion were reported as percentage of the medium control.
MARCKS-related Peptides—Both the myristoylated N-terminal sequence (MANS) and the random N-terminal sequence (RNS) peptides were synthesized at Genemed Synthesis, Inc. (San Francisco, Calif.), then purified by high pressure liquid chromatography (>95% pure), and confirmed by mass spectroscopy with each showing one single peak with an appropriate molecular mass. The MANS peptide consisted of sequence identical to the first 24 amino acids of MARCKS, i.e. the myristoylated N-terminal region that mediates MARCKS insertion into membranes, MA-[…] (SEQ ID NO: 1) (where MA=N-terminal myristate chain). The corresponding control peptide (RNS) contained the same amino acid composition as the MANS but arranged in random order, MA-[…] (SEQ ID NO: 26). The presence of the hydrophobic myristate moiety in these synthetic peptides enhances their permeability to the plasma membranes, enabling the peptides to be taken up readily by cells. To determine the effects of these peptides on mucin secretion, cells were preincubated with the peptides for 15 min prior to addition of secretagogues, and mucin secretion was then measured by ELISA.
Antisense Oligonucleotides—MARCKS antisense oligonucleotide and its corresponding control oligonucleotide were synthesized at Biognostik GmbH (Gottingen, Germany). NHBE cells were treated with 5 μM antisense or control oligonucleotide apically for 3 days (in the presence of 2 μg/ml lipofectin for the first 24 h). Cells were then incubated with secretagogues, and mucin secretion was measured by ELISA. Total RNA and protein were isolated from treated cells. MARCKS mRNA was assessed by Northern hybridization according to conventional procedures using human MARCKS cDNA as a probe. MARCKS protein level was determined by Western blot using purified anti-MARCKS IgG1 (clone 2F12) as the primary detection antibody.
The effect on mucus secretion of a myristoylated peptide containing the first 24 amino acids of the human MARCKS protein (MANS; myristoylated N-terminal sequence; SEQ ID NO: ) was tested. Cultured normal human bronchial epithelial cells as described above were used. […]
(In an ELISA, binding on a coated surface is turned into a signal by an enzyme label.)

For assay [2], the system named is NHBE cells. In words: UTP-induced mucin secretion from NHBE cells (ELISA). The class given is cell-based, human. The settings on record: for Mucin secretion, % of control levels: co-incubation with 0.1 mM UTP 45 min. The protocol: In Results-I-1D, NHBE cells were preincubated with the indicated inhibitor for 15 min and then stimulated with 100 μM UTP for 2 h. Secreted mucin in response to the treatment was collected and assayed by ELISA. Data are presented as mean±S.E. (n=6 at each point).
UTP is a well defined pathophysiologically relevant mucin secretagogue. Lethem ct al., Am. J. Respir. Cell Mol. Biol. 9, 315-322 (1993). […] To determine whether PKC and PKG were involved in regulation of mucin secretion in response to a pathophysiological stimulus, effects of PKC/PKG inhibitors on UTP-induced mucin secretion were investigated. NHBE cells were preincubated with various inhibitors for 15 min and then exposed to UTP (100 μM) plus the inhibitor for 2 h. The secreted mucin was measured by ELISA. […] Apparently, mucin secretion in NHBE cells may be regulated by a signaling mechanism involving both PKC and PKG.
Peptide Blocking Studies—NHBE cells were preincubated with either the MANS or the RNS peptide (1-100 μM) for 15 min, and then PMA (100 nM)+8-Br-cGMP (1 μM) or UTP (100 μM) was added, and cells were incubated for an additional 15 min or 2 h. respectively. Mucin secretion was measured by ELISA and experimental results are designated as Results-I-2B-1 and Results-I-2B-2, as follows.
PP2A is an essential component of the mucin secretory pathway. NHBE cells were preincubated with the indicated concentration of fostriecin, okadaic acid (500 nM), or medium alone for 15 min and then stimulated with PMA (100 nM)+8-Br-cGMP (1 μM) for 15 min or with UTP (100 μM) for 2 h. Secreted mucin was measured by ELISA. […] Thus, dephosphorylation of MARCKS by a PKG-activated PP2A appears to be an essential component of the signaling pathway leading to mucin granule exocytosis.
as §1
These experiments were carried out similarly to those described in Example 7. To test for stimulated secretion, the cells were exposed apically and basolaterally to uridine 5′-triphosphate (UTP) at a concentration of 0.1 mM in media. Cells were pre-incubated for 15 minutes with the MANS peptide and test cultures were then co-incubated with the MANS peptide and UTP for 45 minutes.
NHBE cells were pre-incubated with okadaic acid (500 nM) for 15 min at 37° C./5% CO2, then stimulated with PMA (100 nM)+8-Br-cGMP (1 μM) for 15 min, or with UTP (0.1 mM) for 2 hours. Secreted mucin in the apical medium was collected and assayed by ELISA. […]

The mark [3] stands for this setting: peptide 1 μM, 15 min preincubation, then PMA 100 nM+8-Br-cGMP 1 μM 15 min (Results-I-2B-1).
[4] abbreviates: peptide 10 μM, 15 min preincubation, then PMA 100 nM+8-Br-cGMP 1 μM 15 min (Results-I-2B-1).
Where [5] appears, read: peptide 100 μM, 15 min preincubation, then PMA 100 nM+8-Br-cGMP 1 μM 15 min (Results-I-2B-1).
Setting [6] is: peptide 1 μM, 15 min preincubation, then UTP 100 μM 2 h.
[7] abbreviates: peptide 100 μM, 15 min preincubation, then UTP 100 μM 2 h.
[8] abbreviates: test agent 10 μM, 15 min preincubation, then UTP 100 μM 2 h.

Take `CCCCCCCCCCCCCC(=O)NCC(=O)N[C@@H](C)C(=O)N[C@@H](CCC(N)=O)C(=O)N[C@@H](Cc1ccccc1)C(=O)N[C@@H](CO)C(=O)N[C@@H](CCCCN)C(=O)N[C@H](C(=O)N[C@@H](C)C(=O)N[C@@H](C)C(=O)N[C@@H](CCCCN)C(=O)NCC(=O)N[C@@H](CCC(=O)O)C(=O)N[C@@H](C)C(=O)N[C@@H](C)C(=O)N[C@@H](C)C(=O)N[C@@H](CCC(=O)O)C(=O)N[C@@H](CCCNC(=N)N)C(=O)N1CCC[C@H]1C(=O)NCC(=O)N[C@@H](CCC(=O)O)C(=O)N[C@@H](C)C(=O)N[C@@H](C)C(=O)N[C@H](C(=O)N[C@@H](C)C(=O)O)C(C)C)[C@@H](C)O` [MANS peptide] (Myristoyl-GAQFSKTAAKGEAAAERPGEAAVA-OH; C-terminus assumed): the “Relative mucin secretion level referenced to stimulated level (M-3A-3) as 100%” value in the assay with NHBE cells [1] (peptide 1 μM) turned out to be 90%; in the assay on NHBE cells [1] (peptide 10 μM), 61%; in the assay with NHBE cells [1] (peptide 100 μM), 16%. Further, the “Mucin secretion as % of control” value in the assay on NHBE cells [1] (setting [3]) came to 188%; in the assay with NHBE cells [1] (setting [4]), 129%; in the assay on NHBE cells [1] (setting [5]), 35%. Further, the “Mucin secretion level relative to media control” value is 171% in the assay on NHBE cells [1] (peptide 1 μM); 117% in the assay on NHBE cells [1] (peptide 10 μM); 29% and 30% with NHBE cells [1] (peptide 100 μM). Moreover, the “Mucin secretion as % of the level observed with 0.1 mM UTP absent MANS peptide” value is recorded as “about 90%” in the assay on NHBE cells [2] (peptide 1 μM), “about 80%” in the assay with NHBE cells [2] (peptide 10 μM) and “about 29%” with NHBE cells [2] (peptide 100 μM). Moreover, the “Mucin secretion, % of control levels” value in the assay with NHBE cells [2] (peptide 1 μM, 15 min preincubation) is given as 146%; in the assay on NHBE cells [2] (peptide 10 μM, 15 min preincubation) it was 128%; in the assay on NHBE cells [2] (peptide 100 μM, 15 min preincubation) it was 46%. Besides, the “Mucin secretion as percent of control” value with NHBE cells [2] (setting [6]) worked out at 143%; in the assay on NHBE cells [2] (setting [7]), 46%; with NHBE cells [2] (setting [8]), 125%.
In the case of `CCCCCCCCCCCCCC(=O)NCC(=O)N[C@H](C(=O)N[C@@H](C)C(=O)N1CCC[C@H]1C(=O)N[C@@H](C)C(=O)N[C@@H](C)C(=O)N[C@@H](CCC(=O)O)C(=O)NCC(=O)N[C@@H](C)C(=O)NCC(=O)N[C@@H](C)C(=O)N[C@@H](CCC(=O)O)C(=O)N[C@H](C(=O)N[C@@H](CCCCN)C(=O)N[C@@H](CCCNC(=N)N)C(=O)N[C@@H](C)C(=O)N[C@@H](CO)C(=O)N[C@@H](C)C(=O)N[C@@H](CCC(=O)O)C(=O)N[C@@H](C)C(=O)N[C@@H](CCCCN)C(=O)N[C@@H](CCC(N)=O)C(=O)N[C@@H](C)C(=O)N[C@@H](Cc1ccccc1)C(=O)O)C(C)C)[C@@H](C)O` [RNS peptide, reference compound] (Myristoyl-GTAPAAEGAGAEVKRASAEAKQAF-OH; C-terminus assumed), the “Mucin secretion as % of control” value with NHBE cells [1] (setting [3]) was found to be 216%; in the assay with NHBE cells [1] (setting [4]) it was 208%; with NHBE cells [1] (setting [5]) it was 206%. In addition, the “Mucin secretion as percent of control” value with NHBE cells [2] (setting [6]) is recorded as 154%; in the assay with NHBE cells [2] (setting [7]), 158%; with NHBE cells [2] (setting [8]) it was 155%.
As to `C=C1[C@@H](O)[C@@H]2O[C@]3(CC[C@H](/C=C/[C@@H](C)[C@@H]4CC(C)=C[C@@]5(O[C@H](C[C@@](C)(O)C(=O)O)CC[C@H]5O)O4)O3)CC[C@H]2O[C@@H]1[C@@H](O)C[C@H](C)[C@H]1O[C@@]2(CCCCO2)CC[C@H]1C` [okadaic acid], the activity at 0.5 µM is 157% in the assay with NHBE cells [1] (Homo sapiens, NHBE, read-out: Mucin secretion as % of control, inhibitor 500 nM, 15 min preincubation, then PMA 100 nM+8-Br-cGMP 1 μM 15 min) and 112% with NHBE cells [2] (Homo sapiens, NHBE, read-out: Mucin secretion as percent of control, inhibitor 500 nM, 15 min preincubation, then UTP 100 μM 2 h). Also, the “Reduction in mucin secretion level from PMA+8-Br-cGMP-stimulated level” value with NHBE cells [1] (inhibitor 500 nM) came to 27%. For the same compound, the “Mucin secretion as % of control” value in the assay on NHBE cells [1] (inhibitor 500 nM, 15 min preincubation, then PMA 100 nM+8-Br-cGMP 1 μM 15 min) amounted to 155%. Also, the “Mucin secretion as percent of control” value with NHBE cells [2] (inhibitor 500 nM, 15 min preincubation, then UTP 100 μM 2 h) is 110%. Also, the “Reduction in mucin secretion level from UTP-stimulated level” value with NHBE cells [2] (inhibitor 500 nM, UTP 0.1 mM 2 h) was determined as 31%.
On to `C[C@@](O)(/C=C/[C@H]1CC=CC(=O)O1)[C@@H](C[C@@H](O)\C=C/C=C\C=C\CO)OP(=O)(O)O` [fostriecin], for which, in the assay with NHBE cells [1] (Homo sapiens, NHBE, inhibitor 1 nM, 15 min preincubation, then PMA 100 nM+8-Br-cGMP 1 μM 15 min, read-out: Mucin secretion as % of control), the activity at 0.001 µM was determined as 198%. Besides, the activity at 0.01 µM in the assay on NHBE cells [1] (Homo sapiens, NHBE, inhibitor 10 nM, 15 min preincubation, then PMA 100 nM+8-Br-cGMP 1 μM 15 min, read-out: Mucin secretion as % of control) was found to be 182%; with NHBE cells [2] (Homo sapiens, NHBE, inhibitor 10 nM, 15 min preincubation, then UTP 100 μM 2 h, read-out: Mucin secretion as percent of control), 152%. Besides, the activity at 0.1 µM came to 170% in the assay on NHBE cells [1] (Homo sapiens, NHBE, inhibitor 100 nM, 15 min preincubation, then PMA 100 nM+8-Br-cGMP 1 μM 15 min, read-out: Mucin secretion as % of control) and 134% in the assay on NHBE cells [2] (Homo sapiens, NHBE, inhibitor 100 nM, 15 min preincubation, then UTP 100 μM 2 h, read-out: Mucin secretion as percent of control). For the same compound, the activity at 0.5 µM in the assay with NHBE cells [1] (Homo sapiens, NHBE, inhibitor 500 nM, 15 min preincubation, then PMA 100 nM+8-Br-cGMP 1 μM 15 min, read-out: Mucin secretion as % of control) is 134%; in the assay on NHBE cells [2] (Homo sapiens, NHBE, inhibitor 500 nM, 15 min preincubation, then UTP 100 μM 2 h, read-out: Mucin secretion as percent of control), 124%.
